These results are taken from patent US20240101540A1, “TARGETED PROTEIN DEGRADATION OF PARP14 FOR USE IN THERAPY” (Ribon Therapeutics, Inc., priority 2022, published 2024).

Each structure is given as a SMILES string. Counter-ions that a name gives are not always drawn.

The assay has as its target T1, catalytic domain of human PARP14 (residues 1611 to 1801) with NanoLuc tag (Homo sapiens, UniProt Q460N5).
T1 construct: expressed in transfected cells; host or cells: HEK-293T cells (ATCC), pcDNA3.1(-) vector
T1 sequence (Q460N5 1611-1801): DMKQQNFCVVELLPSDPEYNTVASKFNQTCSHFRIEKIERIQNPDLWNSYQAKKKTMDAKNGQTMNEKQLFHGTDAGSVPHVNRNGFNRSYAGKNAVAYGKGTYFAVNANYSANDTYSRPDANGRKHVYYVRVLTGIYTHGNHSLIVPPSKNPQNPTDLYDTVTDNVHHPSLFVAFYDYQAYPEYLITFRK
Briefly: NanoLuc assay for the degradation of PARP14 (NanoLuc-tagged PARP14 overexpressed in HEK-293T cells, 2 hours). The assay is classed as cell-based. The conditions noted are these: Assay A (Example A): NanoLuc-tagged PARP14 degradation in HEK-293T cells, read-out: DC50. Here is the method: The insert also contained a NanoLuc tag on the N terminus of the PARP14 protein.
Degradation of PARP14 protein was assessed using measurement of the NanoLuc tag as proxy for the PARP14 protein. […] Plasmid DNA was diluted in empty vector DNA then added to 1.163 mL of phenol red free OptiMEM (Thermo Fisher). Plasmid DNA concentrations used in each assay described in Table 1. The plasmid DNA was mixed with 78.5 μL of Fugene HD (Promega) and allowed to incubate 5 minutes.
The transfection was incubated for 24 hrs at 37 degrees in an incubator supplemented with 5% CO2. The cells were then trypsinized and brought up in phenol red free OptiMEM media. […] 40 nL of a dose response curve diluted in DMSO of each test compound was added to the cell plate using a Mosquito (TTP Labtech) and the plate was incubated at 37° C. for 2 hours. Assay plate was brought to room temperature then 20 μL per well of NanoGlo (Promega) was added to the plate. Luminescence was measured on an Envision (Perkin Elmer).
The average DMSO was calculated from 32 wells containing 0.1% DMSO only in columns 12 and 24 of the assay plate. The % of DMSO values were calculated as described below: […]
The % of DMSO values were plotted as a function of compound concentration and the following 4-parameter fit was applied to derive the DC50 values:
where top, bottom, and Hill Coefficient are allowed to float. Y is the % of DMSO and X is the compound concentration
DC50 data for the Example compounds is provided below in Table 2 (“+” is <0.1 μM; “++” is ≥0.1 μM and <1 μM; and “+++” is ≥1 μM).

On to `O=C1CCC(N2C(=O)c3cccc(NCCCCC(=O)N4CCC(COc5cc(F)c6c(=O)[nH]c(CSC7CCOCC7)nc6c5)CC4)c3C2=O)C(=O)N1` (centres unmarked) [Example 12, 2-(2,6-dioxopiperidin-3-yl)-4-((5-(4-(((5-fluoro-4-oxo-2-(((tetrahydro-2H-pyran-4-yl)thio)methyl)-3,4-dihydroquinazolin-7-yl)oxy)methyl)piperidin-1-yl)-5-oxopentyl)amino)isoindoline-1,3-dione], for which the DC50 is < 100 nM.

Take `O=C(CN1CCC(COc2cc(F)c3c(=O)[nH]c(CSC4CCOCC4)nc3c2)CC1)NCCOCCCNc1cccc2c1C(=O)N(C1CCC(=O)NC1=O)C2=O` (centres unmarked) [Example 13, N-(2-(3-((2-(2,6-dioxopiperidin-3-yl)-1,3-dioxoisoindolin-4-yl)amino)propoxy)ethyl)-2-(4-(((5-fluoro-4-oxo-2-(((tetrahydro-2H-pyran-4-yl)thio)methyl)-3,4-dihydroquinazolin-7-yl)oxy)methyl)piperidin-1-yl)acetamide]: the DC50 is < 100 nM.

As for `O=C1CCC(N2C(=O)c3ccc(NCC(=O)N4CCC(COc5cc(F)c6c(=O)[nH]c(CSC7CCOCC7)nc6c5)CC4)cc3C2=O)C(=O)N1` (centres unmarked) [Example 14, 2-(2,6-dioxopiperidin-3-yl)-5-((2-(4-(((5-fluoro-4-oxo-2-(((tetrahydro-2H-pyran-4-yl)thio)methyl)-3,4-dihydroquinazolin-7-yl)oxy)methyl)piperidin-1-yl)-2-oxoethyl)amino)isoindoline-1,3-dione], the 50% degradation concentration (DC50) is < 100 nM.

On to `O=C1CCC(N2C(=O)c3ccc(N4CCN(CC5CCN(C(=O)CN6CCC(COc7cc(F)c8c(=O)[nH]c(CSC9CCOCC9)nc8c7)CC6)CC5)CC4)cc3C2=O)C(=O)N1` (centres unmarked) [Example 15, 2-(2,6-dioxopiperidin-3-yl)-5-(4-((1-(2-(4-(((5-fluoro-4-oxo-2-(((tetrahydro-2H-pyran-4-yl)thio)methyl)-3,4-dihydroquinazolin-7-yl)oxy)methyl)piperidin-1-yl)acetyl)piperidin-4-yl)methyl)piperazin-1-yl)isoindoline-1,3-dione formate], for which the DC50 is < 100 nM.

For `O=C1CCC(Nc2ccc(C(=O)N3CCC(COc4cc(F)c5c(=O)[nH]c(CSC6CCOCC6)nc5c4)CC3)cc2)C(=O)N1` (centres unmarked) [Example 16, 3-((4-(4-(((5-fluoro-4-oxo-2-(((tetrahydro-2H-pyran-4-yl)thio)methyl)-3,4-dihydroquinazolin-7-yl)oxy)methyl)piperidine-1-carbonyl)phenyl)amino)piperidine-2,6-dione], the DC50 is < 100 nM.

With `O=C1CCC(N2Cc3c(cccc3N3CCN(CC4CCN(C(=O)CN5CCC(COc6cc(F)c7c(=O)[nH]c(CSC8CCOCC8)nc7c6)CC5)CC4)CC3)C2=O)C(=O)N1` (centres unmarked) [Example 17, 3-(4-(4-((1-(2-(4-(((5-fluoro-4-oxo-2-(((tetrahydro-2H-pyran-4-yl)thio)methyl)-3,4-dihydroquinazolin-7-yl)oxy)methyl)piperidin-1-yl)acetyl)piperidin-4-yl)methyl)piperazin-1-yl)-1-oxoisoindolin-2-yl)piperidine-2,6-dione], the DC50 is < 100 nM.

`O=C1CCC(Nc2ccc(C3CCN(CC4CCN(C(=O)CN5CCC(COc6cc(F)c7c(=O)[nH]c(CSC8CCOCC8)nc7c6)CC5)CC4)CC3)cc2)C(=O)N1` (centres unmarked) [Example 18, 3-((4-(1-((1-(2-(4-(((5-fluoro-4-oxo-2-(((tetrahydro-2H-pyran-4-yl)thio)methyl)-3,4-dihydroquinazolin-7-yl)oxy)methyl)piperidin-1-yl)acetyl)piperidin-4-yl)methyl)piperidin-4-yl)phenyl)amino)piperidine-2,6-dione]: the DC50 was < 100 nM.

On to `O=C1CCN(c2ccc(C3CCN(CC4CCN(C(=O)CN5CCC(COc6cc(F)c7c(=O)[nH]c(CSC8CCOCC8)nc7c6)CC5)CC4)CC3)cc2)C(=O)N1` [Example 19, 1-(4-(1-((1-(2-(4-(((5-fluoro-4-oxo-2-(((tetrahydro-2H-pyran-4-yl)thio)methyl)-3,4-dihydroquinazolin-7-yl)oxy)methyl)piperidin-1-yl)acetyl)piperidin-4-yl)methyl)piperidin-4-yl)phenyl)dihydropyrimidine-2,4(1H,3H)-dione], for which the DC50 was < 100 nM.

On to `O=C1CCC(N2C(=O)c3cccc(N4CCC(CN5CCC(C(=O)N6CCC(COc7cc(F)c8c(=O)[nH]c(CSC9CCOCC9)nc8c7)CC6)CC5)CC4)c3C2=O)C(=O)N1` (centres unmarked) [Example 20, 2-(2,6-dioxopiperidin-3-yl)-4-(4-((4-(4-(((5-fluoro-4-oxo-2-(((tetrahydro-2H-pyran-4-yl)thio)methyl)-3,4-dihydroquinazolin-7-yl)oxy)methyl)piperidine-1-carbonyl)piperidin-1-yl)methyl)piperidin-1-yl)isoindoline-1,3-dione], for which the DC50 is < 100 nM.

Take `O=C1CCC(N2C(=O)c3cccc(N4CCN(CC5CCN(C(=O)CN6CCC(COc7cc(F)c8c(=O)[nH]c(CSC9CCOCC9)nc8c7)CC6)CC5)CC4)c3C2=O)C(=O)N1` (centres unmarked) [Example 21, 2-(2,6-dioxopiperidin-3-yl)-4-(4-((1-(2-(4-(((5-fluoro-4-oxo-2-(((tetrahydro-2H-pyran-4-yl)thio)methyl)-3,4-dihydroquinazolin-7-yl)oxy)methyl)piperidin-1-yl)acetyl)piperidin-4-yl)methyl)piperazin-1-yl)isoindoline-1,3-dione]: the DC50 was < 100 nM.

For the compound `O=C1CCC(N2C(=O)c3cccc(NCCOCC(=O)N4CCC(COc5cc(F)c6c(=O)[nH]c(CSC7CCOCC7)nc6c5)CC4)c3C2=O)C(=O)N1` (centres unmarked) [Example 22, 2-(2,6-dioxopiperidin-3-yl)-4-((2-(2-(4-(((5-fluoro-4-oxo-2-(((tetrahydro-2H-pyran-4-yl)thio)methyl)-3,4-dihydroquinazolin-7-yl)oxy)methyl)piperidin-1-yl)-2-oxoethoxy)ethyl)amino)isoindoline-1,3-dione], the DC50 is < 100 nM.

Take `O=C1CCC(N2C(=O)c3ccc(N4CCC(COc5cc(F)c6c(=O)[nH]c(CSC7CCOCC7)nc6c5)CC4)cc3C2=O)C(=O)N1` (centres unmarked) [Example 23, 2-(2,6-dioxopiperidin-3-yl)-5-(4-(((5-fluoro-4-oxo-2-(((tetrahydro-2H-pyran-4-yl)thio)methyl)-3,4-dihydroquinazolin-7-yl)oxy)methyl)piperidin-1-yl)isoindoline-1,3-dione]: the DC50 was < 100 nM.

As to `O=C1CCC(N2C(=O)c3cccc(N4CCC(COc5cc(F)c6c(=O)[nH]c(CSC7CCOCC7)nc6c5)CC4)c3C2=O)C(=O)N1` (centres unmarked) [Example 24, 2-(2,6-dioxopiperidin-3-yl)-4-(4-(((5-fluoro-4-oxo-2-(((tetrahydro-2H-pyran-4-yl)thio)methyl)-3,4-dihydroquinazolin-7-yl)oxy)methyl)piperidin-1-yl)isoindoline-1,3-dione], the DC50 was < 100 nM.

In the case of `O=C1CCC(N2C(=O)c3ccc(NC(=O)CN4CCC(COc5cc(F)c6c(=O)[nH]c(CSC7CCOCC7)nc6c5)CC4)cc3C2=O)C(=O)N1` (centres unmarked) [Example 25, N-(2-(2,6-dioxopiperidin-3-yl)-1,3-dioxoisoindolin-5-yl)-2-(4-(((5-fluoro-4-oxo-2-(((tetrahydro-2H-pyran-4-yl)thio)methyl)-3,4-dihydroquinazolin-7-yl)oxy)methyl)piperidin-1-yl)acetamide], the DC50 was < 100 nM.

Regarding `O=C1CCC(N2C(=O)c3cccc(NC(=O)CN4CCC(COc5cc(F)c6c(=O)[nH]c(CSC7CCOCC7)nc6c5)CC4)c3C2=O)C(=O)N1` (centres unmarked) [Example 26, N-(2-(2,6-dioxopiperidin-3-yl)-1,3-dioxoisoindolin-4-yl)-2-(4-(((5-fluoro-4-oxo-2-(((tetrahydro-2H-pyran-4-yl)thio)methyl)-3,4-dihydroquinazolin-7-yl)oxy)methyl)piperidin-1-yl)acetamide], the DC50 is < 100 nM.

Take `O=C1CCC(N2C(=O)c3ccc(C#CCN4CCC(COc5cc(F)c6c(=O)[nH]c(CSC7CCOCC7)nc6c5)CC4)cc3C2=O)C(=O)N1` (centres unmarked) [Example 27, 2-(2,6-dioxopiperidin-3-yl)-5-(3-(4-(((5-fluoro-4-oxo-2-(((tetrahydro-2H-pyran-4-yl)thio)methyl)-3,4-dihydroquinazolin-7-yl)oxy)methyl)piperidin-1-yl)prop-1-yn-1-yl)isoindoline-1,3-dione]: the DC50 was < 100 nM.

On to `O=C1CCC(N2C(=O)c3cccc(C#CCN4CCC(COc5cc(F)c6c(=O)[nH]c(CSC7CCOCC7)nc6c5)CC4)c3C2=O)C(=O)N1` (centres unmarked) [Example 28, 2-(2,6-dioxopiperidin-3-yl)-4-(3-(4-(((5-fluoro-4-oxo-2-(((tetrahydro-2H-pyran-4-yl)thio)methyl)-3,4-dihydroquinazolin-7-yl)oxy)methyl)piperidin-1-yl)prop-1-yn-1-yl)isoindoline-1,3-dione], for which the DC50 is < 100 nM.
